System: Cytoxan-induced alopecia in rat pups
Test: Cytoxan-induced alopecia in rat pups
Type: in vivo
Description: Induction of alopecia by cytoxan (CTX). Lactating Sprague Dawley mother rats with rat pups were purchased from Harlan Sprague Dawley (Indianapolis, Ind.). The mother rats were given food and water ad libitum. The rats pups were tested in the model of chemotherapy-induced alopecia described by Hussein A. M. et al., Science: 249, 1564 (1990). Cytoxan (CTX), a chemotherapeutic widely used in the treatment of cancer, was used to induce alopecia in the rats. A common side effect of cytoxan treatment in patients is alopecia. Lyophilized vials of Cytoxan were obtained from Mead-Johnson. To produce CTX-induced alopecia, 11 day old rat pups, which are at the peak of coat growth, were injected i.p. with 30-35 μg of CTX/gm body weight. CTX was dissolved in water. By day 18 of life, the animals have shed virtually 100% of their coat leaving bare skin on their backs. Thus, topical application of protective drugs to the animal's back prior to the CTX insult provides a suitable test for prevention of chemotherapy-induced alopecia. A separate alopecia assay was also developed in which whole-body irradiation on day 11 of life was used as the insult. This assay is described in further detail in Example 12 which follows.
In the earliest studies with chemoprotective polyamines, the molecules were prepared in a topical delivery vehicle consisting of from 50-70% ethanol in water, depending on the solubility of the compound. The compounds in ethanol/water solution from 50-150 µl in volume were topically administered to the backs of the pups once per day before and after CTX challenge. Using a micropipette, the formulation was applied to an approximately 2 cm2 section of skin on the backs of the rat pups. Specifically, the pups were treated once daily for the 4-5 days before CTX challenge, once on the day of CTX challenge and once daily for 5 days afterwards. Control groups consisted of pups receiving only delivery vehicle. […]
In the earliest studies with chemoprotective polyamines, hair loss was evaluated using a modified alopecia-scoring index described by Chen G. et al., Int. […] In the later studies with aminothiols a simpler scoring scale was adopted in which coat density was scored on a 0-100 scale as “% of normal coat density.”
Method: To assess the ability of topical treatments to prevent Cytoxan-induced alopecia we used a published protocol (Hussein et al., Science. 249(4976):1564-6, 1990) in which 11 day old neonate rat pups (Sprague-Dawley) receive a total of 6 topical skin treatments of active agent(s) during the 5 hr before and 2 hr after a single ip dose of Cytoxan (32 ug/gm b.w.). […] The density of the rat coats in the topical treatment area was scored on day 18 of life for animals injected with Cytoxan.

## CNCC(CS)CNC [PrC-210, 3-methylamino-2-methylaminomethyl-propane-1-thiol]
2000 mM PrC-210 alone, ip Cytoxan 32 ug/gm b.w., Experiment 552-555
  Alopecia Score (% Normal Coat Density in Topical Treatment Area): 9%
Neonate rats, three days topical resveratrol and/or topical PrC-210
  effect in preventing Cytoxan-induced alopecia: weak effect
